Details of data set [1]: method as in Seguin et al., 2013. Particulars: ref Seguin et al., 2013; cited from earlier work.
Data set [2] in a line: Apparent solubility of FST and FHIC in aqueous phase. The class given is physicochemical. Particulars: PBS. On the procedure: For the determination of apparent solubility, native FST and FHIC were added into 10 ml of PBS and stirred in an orbital shaker for 24 h (Madan et al., [2012]). The solutions were centrifuged (10 000 rpm for 15 min), supernatant was collected and filtered through 0.22 μm filter. After appropriate dilution, FST absorbance was measured using UV-visible spectroscopy at 360 nm. The calibration curve was prepared in the range of 1–20 μg/ml. The observed regression equation was Y = 0.054X + 0.058 with r^2=0.997.

For data set [3], the system named is MCF-7 human breast adenocarcinoma cells. Nature of the data set: Cell viability assay (MTT assay). The class given is cell-based. Particulars: MCF7, MCF-7, 24 h of treatment. On the procedure: The cell viability assay (MTT assay) was performed in MCF-7 human breast adenocarcinoma cells. Cells were seeded at a density of 7 × 10^3 in DMEM medium supplemented with 10% FBS in a 96-well plate and incubated for 24 h at 37 °C in a humidified 5% CO2. The cells were exposed to different concentrations of FST, FHIC and FHIC-PNP for 24 h in order to ascertain the concentration at which 50% of the cells are viable. A volume of 10 μl of MTT solution (5 mg/ml in PBS) was added to each well. The plate was incubated for 4 h and thereafter the contents in the wells were replaced with 100 μl DMSO and again incubated for 10 min. The optical density was measured using a microplate reader (BioTek Instruments, Synergy 4, Winooski, VT) at 570 nm. The cytotoxicity of blank PNP was also studied to determine the toxicity of the nanocarrier system.
(Formazan colour is commonly taken as a measure of viable cells.)

Details of data set [4]: method as in Bothiraja et al., 2014. The settings on record: ref Bothiraja et al., 2014; cited from earlier work.
The test system of the next data set is MCF-7 cells. Nature of the data set: Quantitative apoptosis by flow cytometer (Annexin V-FITC/PI). The class given is cell-based, human. Particulars: MCF-7, equivalent to 20 μg/ml FST, 24 h. On the procedure: For the quantitative analysis of apoptosis, cells were treated with FST, FHIC or FHIC-PNP (equivalent to 20 μg/ml FST) for 24 h. Cells were trypsinized, centrifuged at 1200 rpm for 5 min, washed three times with ice-cold PBS and were re-suspended in 500 μl of binding buffer. Thereafter, 5 μl of Annexin V-FITC and 10 μl of PI were added and mixed for 15 min in the dark. The stained cells were analyzed using a flow cytometer (FACS Calibur, BD, San Jose, CA). Data analysis was performed using Cell-Quest software (Becton Dickinson, Franklin Lakes, NJ).
On the technique in general: In flow cytometry, cells or beads pass a laser one at a time.

A short description of data set [5]: Encapsulation efficiency (indirect method). The class given is physicochemical. The settings on record: FST encapsulated in PLGA nanoparticles. The procedure:
The amount of drug loaded in the nanoparticles was determined by indirect method. Nanoparticle dispersion was centrifuged using Centrisart tubes (Sartorius, Bohemia, NY) and supernatant was analyzed for FST content using UV-visible spectrophotometry at 360 nm. The EE was calculated as follows: EE (%) = {(DT – DS)/DT} × 100, where DT=total FST added; DS=FST in the supernatant.

The nature of data set [6]: In vitro drug release (dialysis bag method). The class given is physicochemical. The settings on record: 8 h, PBS pH 7.4 with 0.1% v/v Tween 80, 37 °C. On the procedure:
Dialysis bag method was used to carry out the in vitro drug release studies. FST or FHIC-PNP dispersion equivalent to 1 mg of FST, was introduced into the dialysis bag (12 000–14 000 molecular weight cut off, Sigma Aldrich, St. Louis, MO) and placed in 100 ml of phosphate buffer saline pH 7.4 (PBS) containing 0.1%v/v Tween 80 as the release media and kept for stirring at 37 °C at 100 rpm. Samples were withdrawn at different time intervals and replaced with equal volume of media to maintain the sink condition. The collected samples were analyzed for amount of FST content by UV-visible spectrophotometry at 360 nm.

Data set [7] can be described thus: Pharmacokinetic study after oral administration. It counts as in vivo. Particulars: 10 mg/kg FST equivalent, C57BL6 mice, plasma. On the procedure: The animal experiments were performed in accordance with the Committee for the Purpose of Control and Supervision of Experiments on Animals (CPCSEA) guidelines after approval from Institutional Animal Ethics Committee (IAEC) of the institution (Approval no. IICT/39/2016). Female C57BL6 mice weighing from 18 to 22 g were kept for overnight fasting before the start of the experiment and allowed free access of water ad libitum.
C57BL6 mice were divided into two groups containing 27 animals in each. Animals in group I received pure FST (as 1% gum acacia suspension) orally at a dose of 10 mg/kg body weight and the animals in group II received FHIC-PNP (FST equivalent to 10 mg/kg) orally. At predetermined time intervals, blood samples were collected from retro-orbital plexus into centrifuge tube containing EDTA. Samples were centrifuged at 4000 rpm for 15 min and supernatant (plasma) was collected and stored at −80 °C for further analysis by LC/MS.
Plasma samples were extracted by solvent mixture composed of chloroform and acetonitrile (1:1). The mixture was kept in shaker for 10 min and the supernatant layer was transferred into another Eppendorf tubes. Evaporation of organic solvent was done on ScanVac speed vacuum concentrator and 100 μl of acetonitrile was added and vortexed. A volume of 2 μl aliquots of sample solution were injected into LC–MS/MS for analysis. The linearity of the method was evaluated by analyzing spiked calibration samples using six calibration standards over a calibration range of 0.5–800 ng/ml in mice plasma.
Analysis was carried out on U-HPLC instrument (Agilent Technologies, Santa Clara, CA) equipped with a quaternary pump, a degasser, a diode array detector, an auto sampler and a column compartment. Mass spectrometric analysis was carried out on an Agilent 6420 triple quadrupole (Agilent Technologies, Santa Clara, CA) equipped with electrospray ionization (ESI) source. The data acquisition was under the control of Mass Hunter software.
FST and baicalein, an internal standard (IS), were separated on Agilent Eclipse plus C18 (2.1 mm × 50 mm, 1.8 μm) at constant temperature of 40 °C. The initial mobile phase consisted of 10 mM of ammonium formate (pH 3.5) and acetonitrile with gradient elution at a flow rate of 0.4 ml/min. Elution was in a gradient, the acetonitrile was kept constant at 2% in 0.5 min, and then increased to 98% in 1.5 min and maintained at 98% for another 2 min, then decreased to 2% in 3.8 min and maintained for 2.2 min. The total run time of the analysis was 5 min. After each injection, the sample manager was cleaned by a needle wash process with methanol–water (70/30 v/v). The typical operating source condition for MS scan in negative ion ESI mode were optimized as follow: collision energy 33 eV, cell accelerator voltage 7 eV, fragmentor 135, dwell time 200 ms, gas temperature 280 °C, gas flow 10 l/min and nebulizer 50 psi. The MRM modes of ions with m/z 284.8 → 134.8 for FST and m/z 268.8 → 166.8 for IS (baicalein) were utilized for quantitative analysis.

In brackets after ≈: the same amount, converted by molar mass.

With `O=c1c(O)c(-c2ccc(O)c(O)c2)oc2cc(O)ccc12` [FST, 2-(3,4-dihydroxyphenyl)-3,7-dihydroxychromen-4-one], the oral bioavailability in data set [1] is 44.1%. Besides, the solubility at 24 h in data set [2] came out at 5.25 µg/mL (≈ 18.3 µM). Also, the IC50 in data set [3] stood at 77.8 ± 2.12 µg/mL. In addition, the aqueous solubility in data set [4] is 10.45 µg/mL (≈ 36.5 µM). Besides, the apoptosis induction with MCF-7 cells is recorded as 21.8%. The “encapsulation/entrapment efficiency (EE)” value in data set [5] (listed as native FST) was determined as 47%. In addition, the “encapsulation/entrapment efficiency (EE)” value in data set [5] (listed as pure FST) is 47.3%. The “FST released in vitro” value in data set [6] is “about 93%”. Besides, in data set [7], the Cl is 2022.59 ± 0.02 mL/h. In data set [7] (female, mouse), the AUC(0-inf) came out at 100 ± 2.91 ng·h/mL, the AUC(0-t) amounted to 80.4 ± 3.61 ng·h/mL, the Cmax amounted to 69.3 ± 4.16 ng/mL and the MRT was 3.82 ± 2.15 h. Further, in data set [7] (female, mouse), the Tmax is 0.25 ± 1.2 h and the half-life was 3.26 ± 0.9 h.

The term solubility denotes how much of the substance goes into solution per volume. What is called IC50 is the concentration that gives 50% inhibition. For orientation: aqueous solubility means the dissolved amount per volume that the medium holds. A word on the AUC(0-inf): it is the area under the concentration-time curve extrapolated to infinity. One may read the AUC(0-t) as the area under the concentration-time curve up to a stated or last time point. As usually defined, the Cmax is the maximum level reached in the sampled fluid or tissue. As a reminder, the MRT is the average time that molecules of a dose stay in the body. In general, Tmax refers to the time at which the peak concentration occurs. Broadly, the half-life is the time needed for the level to fall by half in the phase considered.

The record behind these values is paper PMC8241160, “Enhanced oral bioavailability and anticancer efficacy of fisetin by encapsulating as inclusion complex with HPβCD in polymeric nanoparticles” (Drug Delivery, 2017).
